Blank lines part the entries; values can stand above or below the compound they belong to.
Assays:
[1] = test system: NT2 cells; assay: Differentiation induction from stem cells to nerve cells; type: cell-based, human; conditions: peretinoin 3 10 μM, ATRA 1 μM or 10 μM
Method: NTERA-2 cl.D1 [NT2/D1] cells (ATCC CRL-1973) (hereinafter described as “NT2 cells”) derived from human pluripotent embryonic cancer were adhesion cultured in a maintenance culture medium (high glucose D-MEM (Sigma-Aldrich, D6429), 10% FBS, 100 U/ml penicillin/streptomycin) under conditions of 37° C. and 5% CO2 for 3 to 4 days on a 10 cm plastic dish until becoming confluent. The NT2 cells were exfoliated by Accutase (Innovative Cell Technologies, #AT104), passaged, and maintenance cultured for 50 days. The medium was changed three times a week. The maintenance cultured NT2 cells were dispersed in a petri dish for low-attached microorganisms (STAR SDish9015, RIKEN) at a concentration of 1.5×10^6 to 2.5×10^6/dish, and suspension cultured on a vibrator (100 rpm) under conditions of 37° C. and 5% CO2, and after one day, 1 μM or 10 μM ATRA was added to induce differentiation and form spheroids. After 14 days, the spheroids were recovered, seeded on a 10 cm dish coated with 5 μg/ml poly-D-lysine (PDL) (Sigma-Aldrich)/laminin (LAM) (iMatrix-511, Nippi), and adhesion cultured under conditions of 37° C. and 5% CO2. […]

[2] = test system: NMDA-type glutamate receptors; assay: Calcium imaging of reactivity to NMDA in differentiated cells; type: cell-based, human; conditions: NT2-N cells, Fluo-8, 100 μM NMDA solution
Method: In order to confirm a statement of synaptic receptors in mature cells, a calcium influx via NMDA-type glutamate receptors was measured as follows.
A fluorescent calcium indicator Fluo-8 AM (AAT Bioquest) was dissolved in Mg-free HHBS (Hepes-buffered Hanks' balanced salt solution (1.26 mM CaCl2, 5.33 mM KCl, 0.44 mM KH2PO4, 4.17 mM NaHCO3, 137.93 mM NaCl, 0.34 mM Na2HPO4, 5.56 mM D-glucose, 20 mM HEPES, pH 7.4)) containing 0.1 μM glycine (4 μM, 2 μM, respectively). This solution (1 ml) was loaded into NT2-N cells under conditions of 37° C. and 5% CO2 (2 hours, 30 minutes, respectively), and fluo8 was loaded into the cells. Thereafter, an extracellular fluid was replaced with Mg-free HHBS containing 0.1 μM glycine, and it was used for the following measurement after being left in an incubator (37° C., 5% CO2) of a living cell time-lapse imaging device (BioStation IM-Q, Nikon) for 1 hour or more. For the NT2-N cells placed in the device, 5 to 10 fields of view to be analyzed were manually set, and for each field of view, fluorescence intensity was continuously recorded every 2 seconds for 5 minutes at an excitation wavelength of 480 nm/a fluorescence wavelength of 520 nm. Further, after a certain period of time elapsed from the start of recording, 100 μl of the 100 μM NMDA solution (Mg-free HHBS containing 0.1 μM glycine) prepared above was administered.

[3] = Non Patent Literature 2 and 3; cited from earlier work
[4] = PET pharmacokinetic test of 11C-labeled acyclic retinoids in rats; type: in vivo, Sprague-Dawley rats; conditions: rat, i.v.
Method: (§1) The ^11C-labeled acyclic retinoid 4c and the ^11C-labeled peretinoin 3 synthesized by the methods described above were administered intravenously (i.v.) to Sprague-Dawley rats and cynomolgus monkeys as a PET probe, and PET images were photographed.

[5] = PET pharmacokinetic test of 11C-labeled acyclic retinoids in cynomolgus monkeys; type: in vivo; conditions: cynomolgus monkey, i.v.
Method: as §1

[6] = test system: cerebral hemorrhage; assay: Effect on cerebral hemorrhage pathology (collagenase injection into striatum); type: in vivo, ICR mouse
Method: A male ICR mouse aged 8 to 10 weeks was placed in a brain stereotaxic apparatus under triple anesthesia, and bleeding was induced by injecting 0.035 U of collagenase type VII (Sigma) into a fixed coordinate (2.3 mm lateral to a median, 0.2 mm posterior to a bregma suture, 3.5 mm below a skull) in the striatum over 2.5 minutes using a 30 gauge needle. After that, the surface of the skull was reduced with dental cement, and breeding was continued. The peretinoin 3 (40 mg/kg) was suspended in water together with 0.5% carboxymethyl cellulose, and administered intragastrically using an oral sonde three times in total 3, 27, and 51 hours after the bleeding induction. Note that for comparison, 0.5% carboxymethyl cellulose without the peretinoin 3 was also administered intragastrically in a similar manner. A degree of motor dysfunction in the mouse was evaluated by performing two types of motor function tests (beam walking test, modified limb-placing test) 6, 24, 48, and 72 hours after the bleeding induction. Further, after completion of the motor function test 72 hours later, the mouse was perfused and fixed under anesthesia, and the brain was extracted to prepare a frozen coronary section having a thickness of 16 μm. The effects of the peretinoin 3 were evaluated by identifying microglia, astrocytes, and neurons in the brain tissue, respectively, through immunohistochemistry using antibodies against Iba1, GFAP, and NeuN, and quantifying the number of cells in a given area or an immune reaction positive area.

[7] = test system: cerebral cortex-striatal tissue sections; assay: Inhibitory effect on thrombin toxicity in cultured brain slices; type: cell-based, Wistar/ST rat; conditions: 10, 20, 30 μM; thrombin 100 U/ml, 72 hours
Method: (§2) Thrombin is known to induce cerebral cortex cell death and striatal tissue atrophy. Therefore, an experiment for evaluating thrombin toxicity was performed. In other words, a coronal section having a thickness of 300 μm was prepared from a brain of a Wistar/ST rat aged 2 to 3 days after birth, a fan-shaped tissue piece including a cerebral cortex and striatum was cut out, and then left to stand on a porous membrane (Millicell-CM, Millipore Corporation), and culture was maintained at a gas-liquid interface under a conditions of 34° C./5% CO2 (medium composition: 50% minimal essential medium, 25% Hanks' balanced salt solution, 25% horse serum). […] PI fluorescence images were acquired using a fluorescence microscope (Keyence) 72 hours after a start of thrombin treatment, and a degree of cell death was evaluated using fluorescence intensity of a cortical region as an index (sections of 100 μM NMDA treated for 72 hours were provided for each experiment, and their PI fluorescence intensity was standardized as 100%). Further, an area of a striatal region in each tissue piece was measured from bright field images of cultured tissue pieces acquired before and after the thrombin treatment, and a rate of tissue atrophy due to the thrombin treatment was quantified.

[8] = test system: cerebral cortex-striatal tissue sections; assay: Evaluation using K252a (TrkB inhibitor) of the cytoprotective effect against thrombin; type: cell-based, Wistar/ST rat; conditions: thrombin + K252a (3 μM)
Method: as §2, with “quantified. […]” for “quantified.”

[9] = radioactivity in brain for each time
[10] = radioactivity in brain over time
[11] = 40 mg/kg intragastrically, 6, 24, 48, 72 hours after bleeding
[12] = 40 mg/kg intragastrically, brain taken 72 hours after bleeding

SMILES: CC1=C(/C=C/C(C)=C/C=C/C(C)=C/C(=O)O)C(C)(C)CCC1 [ATRA, All-trans-retinoic acid, reference compound]
- number of cells expressing MAP2 without expressing nestin (differentiation induction into nerve cells) [1]: increased
- expression of NMDA-type glutamate receptors in induced nerve cells (calcium imaging, NMDA) [2]: expressed NMDA-type glutamate receptors

SMILES: CC1(C)CCC(C)(C)c2cc(NC(=O)c3ccc([11C](=O)O)cc3)ccc21 [^11C-labeled Am80]
- intracerebral migration when used as a PET probe [3]: no intracerebral migration was observed

SMILES: Cc1cc2c(cc1-n1nnc3cc([11C](=O)O)ccc31)C(C)(C)CCC2(C)C [^11C-labeled CBt-PMN]
- intracerebral migration when used as a PET probe [3]: higher intracerebral migration than that of ^11C-labeled bexarotene

- migration into the brain (PET image) ([4]; PET probe): migrated into a brain
- start of migration into the brain after administration [4, 9]: within several minutes
- accumulation in the brain compared with the concentration when uniformly distributed throughout the body [4, 10]: 1.3 times
- migration into the brain (PET image) ([5]; PET probe): migrated into a brain
- start of migration into the brain after administration [5, 9]: within several minutes
- accumulation in the brain compared with the concentration when uniformly distributed throughout the body [5, 10]: 3.0 times
SMILES: CC(C)=CCC/C(C)=C/CC/C(C)=C/C=C/C([11CH3])=C/C(=O)O [^11C-labeled peretinoin 3]

SMILES: CC(C)=CCC/C(C)=C/CC/C(C)=C/C=C/C(C)=C/C(=O)O [peretinoin 3, (2E,4E,6E,10E)-3,7,11,15-tetramethylhexadeca-2,4,6,10,14-pentaenoic acid]
- changes in body weight after cerebral hemorrhage ([6]; 40 mg/kg intragastrically 3, 27, 51 hours after bleeding induction): suppressed weight loss
- beam-walking test: fall rate [6, 11]: decrease
- beam-walking test: score [6, 11]: increase
- beam-walking test: walking width [6, 11]: increase
- modified limb-placing test: deficit score [6, 11]: decrease
- motor dysfunction ([6]; 40 mg/kg intragastrically, 24 to 72 hours after bleeding): significantly alleviated
- accumulation of activated microglia around a hematoma (Iba1 immunohistochemistry) [6, 12]: significantly suppressed
- shedding of nerve cells in the hematoma (NeuN immunohistochemistry) [6, 12]: suppressed
- number of cells expressing MAP2 without expressing nestin (differentiation induction into nerve cells) [1]: increased
- expression of NMDA-type glutamate receptors in induced nerve cells (calcium imaging, NMDA) [2]: expressed NMDA-type glutamate receptors
- cerebral cortex cell death induced by thrombin (PI fluorescence) [7]: concentration-dependent and significantly suppressed
- striatal tissue atrophy induced by thrombin [7]: concentration-dependent and significantly suppressed
- inhibitory effect on striatal atrophy in the presence of K252a [8]: not blocked by K252a
- protective effect on cerebral cortex cells in the presence of K252a [8]: blocked by K252a

Source: patent US20240002313A1, “[11C]-LABELED ACYCLIC RETINOID, CENTRAL NERVOUS SYSTEM ACTIVATOR, AND PRODUCTION METHODS FOR SAME” (NATIONAL CENTER FOR GERIATRICS AND GERONTOLOGY, priority 2020, published 2024)
